Measurements taken from US20240139206A1, “METHODS OF TREATMENT” (Kinoxis Therapeutics Pty Ltd, priority 2021, published 2024).
“Also recorded” adds a separate entry of the source.

Experiments:
Assay type in all cases: in vivo
[1] = tested on: 6-OHDA lesion mice; test: Social interaction test in neonatal 6-OHDA lesion mouse model of ADHD; settings: KNX100 phosphate 1.845-7.38 mg/kg freebase equivalent i.p. or 3.75-15 mg/kg p.o.
Text: Increased aggression is commonly observed in patients with ADHD. This increased aggression is also observed in several animal models of ADHD. One such model is the neonatal 6-hydroxydopamine (6-OHDA) lesion mouse model.
Briefly, intracerebroventricular infusion of 6-OHDA into brains of mice around postnatal day 5 results in a biological ADHD phenotype (e.g. dopamine depletion) and a behavioural phenotype (e.g. hyperactivity, impaired attention, impulsivity, aggression, and learning and memory deficits) in the majority of mice from postweaning onwards.
Five primary experimental conditions of interest are investigated: • Sham lesion mice treated with vehicle • 6-OHDA lesion mice treated with vehicle • 6-OHDA lesion mice treated with 1.845 mg/kg freebase equivalent KNX100 phosphate i.p. or 3.75 mg/kg p.o. • 6-OHDA lesion mice treated with 3.69 mg/kg freebase equivalent KNX100 phosphate i.p. or 7.5 mg/kg p.o. • 6-OHDA lesion mice treated with 7.38 mg/kg freebase equivalent KNX100 phosphate i.p. or 15 mg/kg p.o.
During adolescence, mice undergo a social interaction test to test the effects of KNX100 on increased aggression the ADHD model mice (6-OHDA lesion mice) compared to the control mice (sham lesion mice). […] The behaviours of the control or ADHD model mouse are assessed and include the total time spent fighting, the total number of fights, and the latency to the first fight.

[2] = tested on: single housed hyper-aggressive male Swiss mice; test: Isolation-induced aggression model, two mouse social interaction test; settings: for increased time spent fighting in single housed mice: 10-minute test
Text: This model has been chosen as it is considered to have excellent predictive validity toward human aggression and face validity for modelling offensive impulsive aggression in human aggression and it leads specifically to alterations in aggressive behaviour without confounding changes in other behaviours.
Eighty male Swiss mice (ARC, Perth, Australia) aged 6-7 weeks upon arrival were used for objectives (1) and (3) in this study, 30 mice of the same age and strain were used for objective (2). Subjects were housed four per cage in a temperature-controlled colony room (22° C.±1° C.) under standard laboratory conditions (12-hour light/dark cycle; light phase 0700-1900 hours) upon arrival. Mice were housed in standard IVC cages. Mice had ad libitum access to food and water in their home cages. All experiments were performed during the light phase. All experimental procedures were approved by University of Sydney Animal Ethics Committee.
After allowing 1 week for acclimatisation, n=64 mice were rendered hyper-aggressive by moving them into single housing, whereas n=16 animals were housed in groups of four. During this time, all mice were weighed at least once per week. One week prior to the commencement of testing mice were given habituation injections with saline (0.9%, 10 mL/kg) to reduce the potential confounding stress and anxiety from injections during testing.
Testing commenced from 6 weeks post-isolation. All experiments were conducted in testing arenas constructed from acrylic, with matte blue internal walls and floor (400 mm×400 mm×400 mm). The lighting at the centre of the arenas during testing was <10 lux. Prior to each test, one mouse in each pair was marked on its back with a non-toxic green marker, this allowed the automated behavioural tracking software to distinguish between the two mice (see below). On test days, weight and condition matched pairs of unfamiliar mice were administered their drug treatment(s) as described below and were then placed into the testing arena together for a 10 min test session (Examples 2 and 4) or a 5 minute test session (Example 3).
Drugs were administered either via intraperitoneal (i.p.) injection (injection volume 10 ml/kg) or administered orally (as indicated). The testing arenas were cleaned between sessions with ethanol (80%) and F10 disinfectant to eliminate residual odours.
KNX100 2HCL (Wuxi Apptech, Hong Kong, China) was dissolved in saline (0.9%).
A 5 group between-subjects design was utilised. 15 min prior to testing, group-housed mice received vehicle treatment (VEHg) and single housed mice received one of four different doses of KNX100 (0 aka VEHs, 2.5, 5 or 10 mg/kg). The sample size in each group was as follows: group housed (n=12); singled housed administered KNX100 dose 0 (n=14), […] (n=16), […] (n=18), and 10 (n=16) mg/kg, for i.p. administration.
For oral dosing, mice were similarly grouped, and 20 mg/kg KNX100 in saline or vehicle (saline) were administered by oral gavage with n=10 mice per group.
A 4 group between-subjects design was utilised.
The behaviours of interest were: (1) time (in seconds) spent fighting; (2) time (in seconds) spent huddling (defined as the mice being in close physical contact with each other while stationary); (3) time (in seconds) spent grooming themselves; and (4) distance travelled (in mm) by each mouse during the experimental session.
Experimental sessions were recorded with an overhead camera using CaptureStar (Version 1.00, CleverSys, Virginia, USA). The behaviours detailed above were automatically quantified from the videos using the behavioural tracking software TopScan, SocialScan and AggressionScan (CleverSys, Virginia, USA). Data were analysed using SPSS (Version 24.0, IBM, USA). Data were analysed with a one-way ANOVA and planned contrasts. Significance was set at p≤0.05.
This study used the same model and testing procedure for the two-mouse social interaction test as described in Example 1, and using a phosphate salt form of KNX100.

[3] = tested on: APP/PS1 mice; test: Resident-Intruder (RI) test in Alzheimer's disease aggression mouse model; settings: for number (frequency) of attacks on the intruder mouse vs vehicle-treated APP/PS1 mice: KNX100 phosphate salt 2.5, 5 or 10 mg/kg freebase equivalent IP 15 min prior, risperidone 0.05 mg/kg IP 30 min prior, 5-minute session
Text: Male APP/PS1 and WT mice (˜3 months of age) were used to assess the effect of KNX100 on aggression in a mouse model of Alzheimer's Disease.
APP/PS1 are double transgenic mice expressing a chimeric mouse/human amyloid precursor protein (APP) and presenilin (PS1).
Male C57BL/6J mice were purchased from Jackson Laboratory at 7-8 weeks of age and were used as the intruders in this study. The APP/PS1 mice and wild-type control mice were single-housed and C57BL/6J mice were group-housed (4 per cage) in a light-controlled environment (12/12 light/dark cycle) with access to food and water ad libitum. Tests were performed during the animal's light cycle.
The test compound, KNX100 was provided in its phosphate salt form. Doses of 2.5, 5, and 10 mg/kg freebase equivalent were dissolved in saline and injected IP, at a dose volume of 10 ml/kg, 15 minutes prior to the test.
Briefly, all mice were acclimated to red-light conditions for 60 minutes prior to testing. During the RI test, an unfamiliar intruder C57BL/6J mouse was placed directly into the home cage of the APP/PS1 resident mouse for 300 seconds. During the 5-minute session, the latency time to attack (attack was defined at a bite), and the total number (frequency) of attacks, were recorded manually by an experimenter blinded to the treatment groups. Immediately after testing, mice were separated, and the intruder mouse was placed back into his home cage. All mice that were wounded were treated according to IACUC guidelines.
One week after the pre-screen RI session, AD resident mice were administered vehicle, test compound, or risperidone. The RI test session was performed as described above following the appropriate pretreatment time.
Body weights were recorded at each time point as specified above. For aggression, the latency to attack and the total number of attacks were recorded.
Data were analyzed by analysis of variance (ANOVA) followed by post-hoc comparisons when appropriate. An effect was considered significant if p<0.05. Data are presented as the mean±standard error of the mean (SEM).

[4] = Example 4: 0.1 mg/kg risperidone (30 min prior) or 10 mg/kg KNX100 dihydrochloride salt (15 min prior), 10 min test
[5] = Example 4: 0.1 mg/kg risperidone or 10 mg/kg KNX100 dihydrochloride salt
[6] = Example 4: 10 mg/kg KNX100 vs 0.1 mg/kg risperidone
[7] = KNX100 dihydrochloride salt 20 mg/kg p.o. 30 min prior, 5 min test
[8] = KNX100 dihydrochloride salt 2.5, 5 or 10 mg/kg i.p., single housed mice, linear trend for dose
[9] = acute KNX100 phosphate salt 15 mg/kg freebase equivalent p.o.
[10] = subchronic KNX100 phosphate salt 15 mg/kg freebase equivalent p.o. once daily 7 days

## Cn1ncc2c1Nc1ccccc1NC2 [KNX100]
[1]
  total time spent fighting, total number of fights, latency to the first fight: is shown to inhibit fighting incidents, duration of fighting, and latency to first attack
[2]; [4]
  time spent fighting vs vehicle treated single housed mice: spent less time fighting; also recorded: significantly inhibited fighting
[2]; [5]
  distance travelled vs vehicle treated single housed mice: travelled significantly less distance; also recorded: significantly reduced distance travelled
  time spent fighting vs vehicle treated group housed mice: spent less time fighting
  time spent huddling vs vehicle treated single housed mice: spent significantly more time huddling; also recorded: increased huddling
[2]; Example 4: 0.1 mg/kg risperidone vs 10 mg/kg KNX100
  distance travelled / locomotor activity, risperidone compared with KNX100: significantly less suppression of locomotor activity
[2]; Example 4: 10 mg/kg KNX100 dihydrochloride salt
  time spent grooming vs vehicle treated group housed mice: did not differ significantly from vehicle treated group housed mice in time spent grooming
[2]; [6]
  time spent fighting / inhibition of aggression, KNX100 compared with risperidone: no significant difference in time spent fighting; also recorded: at least equivalent inhibition of aggression to risperidone
  time spent grooming, KNX100 compared with risperidone: no significant different in time spent grooming
  time spent huddling, KNX100 compared with risperidone: no significant difference in time spent huddling
[2]; [7]
  time spent fighting vs vehicle treated group housed mice: did not differ significantly in time spent fighting compared to vehicle treated group housed mice; also recorded: did not differ significantly in time spent fighting relative to the group housed mice
  time spent fighting vs vehicle treated single housed mice: spent significantly less time fighting than the single housed vehicle treated mice
[2]; KNX100 dihydrochloride salt 2.5, 5, 10 mg/kg i.p., vs vehicle treated group housed mice
  distance travelled relative to the group housed mice: none of the doses of KNX100 resulted in a significant difference in distance travelled
[2]; KNX100 dihydrochloride salt 2.5, 5 or 10 mg/kg i.p. 15 min prior, single housed mice, linear trend for dose, 10 min test
  time spent fighting: dose dependently inhibited induced aggression; also recorded: dose dependently inhibited fighting
[2]; [8]
  distance travelled: dose dependently decreased distance travelled; also recorded: dose dependently inhibited
  time spent huddling: dose dependently increased time spent in this form of close physical contact; also recorded: dose dependently increased huddling
  time spent self-grooming: dose dependently increased time spent self-grooming
[2]; KNX100 phosphate salt 15 mg/kg freebase equivalent p.o.
  efficacy of subchronic compared with acute KNX100 (duration spent fighting, number of fights, latency to first fight): no significant difference in efficacy; also recorded: maintains full efficacy at reducing aggressive behaviour after repeated dosing; also recorded: equally efficacious
[2]; [9]
  greater number of fights in single housed mice: prevented
  reduced latency to first fight in single housed mice: prevented
[2]; acute KNX100 phosphate salt 15 mg/kg freebase equivalent p.o. on day 7, 30 min prior
  increased time spent fighting in single housed mice: prevented the increased time spent fighting
[2]; [10]
  greater number of fights in single housed mice: prevented
  reduced latency to first fight in single housed mice: prevented
  increased time spent fighting in single housed mice: prevented the increased time spent fighting
[3]; KNX100 phosphate salt 10 mg/kg freebase equivalent IP
  latency to attack the intruder mouse vs vehicle-treated APP/PS1 mice: showed a trend to increasing the latency to attack; also recorded: tended to increase the latency to attack intruders
[3]
  number (frequency) of attacks on the intruder mouse vs vehicle-treated APP/PS1 mice: decreased the number of attacks; also recorded: robustly reduced the number of aggressive attacks

## Cc1nc2n(c(=O)c1CCN1CCC(c3noc4cc(F)ccc34)CC1)CCCC2 [risperidone, reference compound]
[2]; [4]
  time spent fighting vs vehicle treated single housed mice: spent less time fighting; also recorded: significantly inhibited fighting
[2]; [5]
  time spent fighting vs vehicle treated group housed mice: spent less time fighting
  time spent huddling vs vehicle treated single housed mice: spent significantly more time huddling; also recorded: increased huddling
[2]; Example 4: 0.1 mg/kg risperidone, 0.1 mg/kg
  time spent grooming vs vehicle treated single housed mice: spent significantly more time grooming; also recorded: significantly increased time spent grooming
[3]
  number (frequency) of attacks on the intruder mouse vs vehicle-treated APP/PS1 mice: decreased the number of attacks
